Measured values reported in the supplement of paper PMC11208160.

Assay: recombinant UMI read abundance after kanamycin selection (control-corrected) (log10(CPM+1)); higher = more efficient recombination; extreme values may be limits of the assay; sequences stand for … in AGTGCAGAGAAAATCGGCCAGTTTTCTCTGCCTGCAGTCCGCATGCCGTGGGACCCCTTGGGTTCTAACCTGTTGCCTAGATTTATGCAGCGGACTGCCTTTCTCCCAAAGTGATAAACCGG…AGGTTGGTTTCACT; site = the 11-nt donor
Summary of the method: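 Sequenced counts of recombinant UMIs were turned into CPM, averaged across replicates and scaled with control-derived factors. The reported figure is log10(CPM+1). Those UMIs, each 12 nt long, tagged donor and donor-binding-loop pairs on a plasmid with a promoterless kanamycin gene, screened as a pool in Escherichia coli with IPTG (0.07 mM) plus kanamycin or without selection.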
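Further: IS621 bridge recombinase in Escherichia coli cells against a fixed T5 target plasmid.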

Going from “GTGGAGGCATGGACCGGTTTTCCCGGTAATCCGTATTTGTG (site GTGGAGGCTTA)” to “GTGGAGGCATGGACCGGTTTTCCCGGTAATCCGTATTTGTG (site GTGGAGTCTCA)”, the “recombinant UMI read abundance (log10)” value rises from 1.42 to 1.82.

Compared with “GTGGAGGCATGGACCGGTTTTCCCGGTAATCCGTATTTGTG (site GTGGATGCTCA)”, “GTGGAGGCATGGACCGGTTTTCCCGGTAATCCGTATTTGTG (site GTGGCGGCTCA)” is lower in “recombinant UMI read abundance (log10)” value: 1.27 for the first, 0.00613 for the second.

First: GTGGAGGCATGGACCGGTTTTCCCGGTAATCCGTATTTGTG (site GTGGGGGCTCA)
Second: GTGGAGGCATGGACCGGTTTTCCCGGTAATCCGTATTTGTG (site GTGGTGGCTCA)
The “recombinant UMI read abundance (log10)” value of the first is higher: 0.918 for the first, 0 for the second.

Going from “GTGGAGGCATGGACCGGTTTTCCCGGTAATCCGTATTTGTG (site GTGTAGGCTCA)” to “GTGGAGGCATGGACCGGTTTTCCCGGTAATCCGTATTTGTG (site GTTGAGGCTCA)”, the “recombinant UMI read abundance (log10)” value falls from 1.06 to 0.792.

Compared with “GTGGAGGCATGGACCGGTTTTCCCGGTAATCCGTATTTGTG (site TTGGAGGCTCA)”, “GTGGATGCATGGACCGGTTTTCCCGGTAATCCGTATTTGTG (site GTGGAAGCTCA)” is higher in “recombinant UMI read abundance (log10)” value: 0.821 for the first, 1.82 for the second.

“GTGGATGCATGGACCGGTTTTCCCGGTAATCCGTATTTGTG (site GTGGACGCTCA)” and “GTGGATGCATGGACCGGTTTTCCCGGTAATCCGTATTTGTG (site GTGGAGGCTCA)” are within 0.2 log units of each other in “recombinant UMI read abundance (log10)” value: 0.837 for the first, 0.696 for the second.

Compared with “GTGGATGCATGGACCGGTTTTCCCGGTAATCCGTATTTGTG (site GTGGATGCTCA)”, “GTGGCACCATGGACCGGTTTTCCCGGTAATCCGTATTTGAG (site GTGGCACCTCT)” is lower in “recombinant UMI read abundance (log10)” value: 1.67 for the first, 0.0198 for the second.

“GTGGCACCATGGACCGGTTTTCCCGGTAATCCGTATTTGCA (site GAGGCACCTTG)” and “GTGGCACCATGGACCGGTTTTCCCGGTAATCCGTATTTGCA (site GCGGCACCTTG)” are the same in “recombinant UMI read abundance (log10)” value: 0 for the first, 0 for the second.

“GTGGCACCATGGACCGGTTTTCCCGGTAATCCGTATTTGCA (site GGGGCACCTTG)” and “GTGGCACCATGGACCGGTTTTCCCGGTAATCCGTATTTGCA (site GTGGCACCTTG)” are the same in “recombinant UMI read abundance (log10)” value: 0 for the first, 0 for the second.

Going from “GTGGCGGCATGGACCGGTTTTCCCGGTAATCCGTATTTGTG (site GTGGAGGCTCA)” to “GTGGCGGCATGGACCGGTTTTCCCGGTAATCCGTATTTGTG (site GTGGCGGCTCA)”, the “recombinant UMI read abundance (log10)” value rises from 0.154 to 0.696.

“GTGGCGGCATGGACCGGTTTTCCCGGTAATCCGTATTTGTG (site GTGGGGGCTCA)” and “GTGGCGGCATGGACCGGTTTTCCCGGTAATCCGTATTTGTG (site GTGGTGGCTCA)” are within 0.2 log units of each other in “recombinant UMI read abundance (log10)” value: 0.0119 for the first, 0.00615 for the second.

First: GTGGCTGCATGGACCGGTTTTCCCGGTAATCCGTATTTGAT (site GTGGCTGCTAT)
Second: GTGTAGGCATGGACCGGTTTTCCCGGTAATCCGTATTTGGC (site ATGTAGGCTGC)
The “recombinant UMI read abundance (log10)” value of the first is higher: 2.18 for the first, 1.98 for the second.

Going from “GTGTAGGCATGGACCGGTTTTCCCGGTAATCCGTATTTGGC (site CTGTAGGCTGC)” to “GTGTAGGCATGGACCGGTTTTCCCGGTAATCCGTATTTGGC (site GTGTAGGCTGC)”, the “recombinant UMI read abundance (log10)” value rises from 1.99 to 2.67.

First: GTGTAGGCATGGACCGGTTTTCCCGGTAATCCGTATTTGGC (site TTGTAGGCTGC)
Second: GTGTAGGCATGGACCGGTTTTCCCGGTAATCCGTATTTGTG (site GTGAAGGCTCA)
The “recombinant UMI read abundance (log10)” value of the first is higher: 2.28 for the first, 0.891 for the second.

Going from “GTGTAGGCATGGACCGGTTTTCCCGGTAATCCGTATTTGTG (site GTGCAGGCTCA)” to “GTGTAGGCATGGACCGGTTTTCCCGGTAATCCGTATTTGTG (site GTGGAGGCTCA)”, the “recombinant UMI read abundance (log10)” value falls from 1.36 to 0.00345.

First: GTGTAGGCATGGACCGGTTTTCCCGGTAATCCGTATTTGTG (site GTGTAGGCTCA)
Second: GTGTTTCCATGGACCGGTTTTCCCGGTAATCCGTATTTGTG (site GTGTTTCCTCA)
The “recombinant UMI read abundance (log10)” value of the first is higher: 1.75 for the first, 0.368 for the second.

Going from “GTTAGAGCATGGACCGGTTTTCCCGGTAATCCGTATTTGCA (site GTTAGAGCTTG)” to “GTTAGAGCATGGACCGGTTTTCCCGGTAATCCGTATTTGCA (site GTTCGAGCTTG)”, the “recombinant UMI read abundance (log10)” value falls from 3.02 to 1.01.

First: GTTAGAGCATGGACCGGTTTTCCCGGTAATCCGTATTTGCA (site GTTGGAGCTTG)
Second: GTTAGAGCATGGACCGGTTTTCCCGGTAATCCGTATTTGCA (site GTTTGAGCTTG)
The “recombinant UMI read abundance (log10)” value of the first is higher: 1.6 for the first, 1.08 for the second.

“GTTAGAGCATGGACCGGTTTTCCCGGTAATCCGTATTTGGG (site GTTAGAGCTCC)” and “GTTAGCACATGGACCGGTTTTCCCGGTAATCCGTATTTGGC (site GTTAGAACTGC)” are within 0.2 log units of each other in “recombinant UMI read abundance (log10)” value: 0.089 for the first, 0 for the second.

Going from “GTTAGCACATGGACCGGTTTTCCCGGTAATCCGTATTTGGC (site GTTAGCACTGC)” to “GTTAGCACATGGACCGGTTTTCCCGGTAATCCGTATTTGGC (site GTTAGGACTGC)”, the “recombinant UMI read abundance (log10)” value falls from 2.11 to 0.0382.

“GTTAGCACATGGACCGGTTTTCCCGGTAATCCGTATTTGGC (site GTTAGTACTGC)” and “GTTAGTCCATGGACCGGTTTTCCCGGTAATCCGTATTTGAA (site GTTAGTCCTTT)” are within 0.2 log units of each other in “recombinant UMI read abundance (log10)” value: 0 for the first, 0.171 for the second.

Compared with “GTTCAAGCATGGACCGGTTTTCCCGGTAATCCGTATTTGTC (site GTTCAAGCTGA)”, “GTTCATGCATGGACCGGTTTTCCCGGTAATCCGTATTTGGT (site GTACATGCTAC)” is lower in “recombinant UMI read abundance (log10)” value: 1.84 for the first, 0.216 for the second.

First: GTTCATGCATGGACCGGTTTTCCCGGTAATCCGTATTTGGT (site GTCCATGCTAC)
Second: GTTCATGCATGGACCGGTTTTCCCGGTAATCCGTATTTGGT (site GTGCATGCTAC)
The “recombinant UMI read abundance (log10)” value of the first is lower: 0.258 for the first, 0.477 for the second.

Compared with “GTTCATGCATGGACCGGTTTTCCCGGTAATCCGTATTTGGT (site GTTCATGCTAC)”, “GTTCCCTCATGGACCGGTTTTCCCGGTAATCCGTATTTGTA (site GTTCCCTCTTA)” is higher in “recombinant UMI read abundance (log10)” value: 0.717 for the first, 2.5 for the second.

First: GTTCCGACATGGACCGGTTTTCCCGGTAATCCGTATTTGTG (site GTTCCGACTCA)
Second: GTTCCTTCATGGACCGGTTTTCCCGGTAATCCGTATTTGAC (site GTTCCTTCTGT)
The “recombinant UMI read abundance (log10)” value of the first is lower: 0.0473 for the first, 0.671 for the second.

Compared with “GTTCGAACATGGACCGGTTTTCCCGGTAATCCGTATTTGGT (site GTTCGAACTAC)”, “GTTCGAGCATGGACCGGTTTTCCCGGTAATCCGTATTTGCG (site GTTCGAGCTAG)” is lower in “recombinant UMI read abundance (log10)” value: 0.225 for the first, 0 for the second.

Going from “GTTCGAGCATGGACCGGTTTTCCCGGTAATCCGTATTTGCG (site GTTCGAGCTCG)” to “GTTCGAGCATGGACCGGTTTTCCCGGTAATCCGTATTTGCG (site GTTCGAGCTGG)”, the “recombinant UMI read abundance (log10)” value falls from 1.39 to 0.838.

Going from “GTTCGAGCATGGACCGGTTTTCCCGGTAATCCGTATTTGCG (site GTTCGAGCTTG)” to “GTTCGAGCATGGACCGGTTTTCCCGGTAATCCGTATTTGTA (site GTTCGAGCTTA)”, the “recombinant UMI read abundance (log10)” value rises from 1.23 to 1.9.

First: GTTCGAGCATGGACCGGTTTTCCCGGTAATCCGTATTTGTA (site GTTCGAGCTTC)
Second: GTTCGAGCATGGACCGGTTTTCCCGGTAATCCGTATTTGTA (site GTTCGAGCTTG)
The “recombinant UMI read abundance (log10)” value of the first is lower: 0.014 for the first, 0.543 for the second.

“GTTCGAGCATGGACCGGTTTTCCCGGTAATCCGTATTTGTA (site GTTCGAGCTTT)” and “GTTCGGACATGGACCGGTTTTCCCGGTAATCCGTATTTGTG (site GTTCGGACTCA)” are within 0.2 log units of each other in “recombinant UMI read abundance (log10)” value: 0.569 for the first, 0.706 for the second.

“GTTCTACCATGGACCGGTTTTCCCGGTAATCCGTATTTGCC (site GTTCTACCTGG)” and “GTTCTAGCATGGACCGGTTTTCCCGGTAATCCGTATTTGCA (site GTTCAAGCTTG)” are the same in “recombinant UMI read abundance (log10)” value: 0 for the first, 0 for the second.

“GTTCTAGCATGGACCGGTTTTCCCGGTAATCCGTATTTGCA (site GTTCCAGCTTG)” and “GTTCTAGCATGGACCGGTTTTCCCGGTAATCCGTATTTGCA (site GTTCGAGCTTG)” are within 0.2 log units of each other in “recombinant UMI read abundance (log10)” value: 0.0113 for the first, 0 for the second.

“GTTCTAGCATGGACCGGTTTTCCCGGTAATCCGTATTTGCA (site GTTCTAGCTTG)” and “GTTCTCTCATGGACCGGTTTTCCCGGTAATCCGTATTTGTA (site ATTCTCTCTTA)” are within 0.2 log units of each other in “recombinant UMI read abundance (log10)” value: 0.902 for the first, 0.848 for the second.

Going from “GTTCTCTCATGGACCGGTTTTCCCGGTAATCCGTATTTGTA (site CTTCTCTCTTA)” to “GTTCTCTCATGGACCGGTTTTCCCGGTAATCCGTATTTGTA (site GTTCTCTCTTA)”, the “recombinant UMI read abundance (log10)” value rises from 0.989 to 1.83.

First: GTTCTCTCATGGACCGGTTTTCCCGGTAATCCGTATTTGTA (site TTTCTCTCTTA)
Second: GTTGAAGCATGGACCGGTTTTCCCGGTAATCCGTATTTGAG (site GTTGAAGCTCT)
The “recombinant UMI read abundance (log10)” value of the first is lower: 0.822 for the first, 1.61 for the second.

Going from “GTTGAGTCATGGACCGGTTTTCCCGGTAATCCGTATTTGAC (site GTTGAGTCTGT)” to “GTTGGCGCATGGACCGGTTTTCCCGGTAATCCGTATTTGTG (site GTTGGCGCTCA)”, the “recombinant UMI read abundance (log10)” value falls from 2.71 to 0.74.

“GTTGGGCCATGGACCGGTTTTCCCGGTAATCCGTATTTGAT (site GTTGGGCCTAT)” and “GTTGTTCCATGGACCGGTTTTCCCGGTAATCCGTATTTGGT (site ATTGTTCCTAC)” are within 0.2 log units of each other in “recombinant UMI read abundance (log10)” value: 0.00591 for the first, 0.0121 for the second.

For “GTTGTTCCATGGACCGGTTTTCCCGGTAATCCGTATTTGGT (site CTTGTTCCTAC)”, the “recombinant UMI read abundance (log10)” value was 0.00343.
